For data set [1], the system named is human BxPC-3 pancreatic cancer cells. Put plainly: In vitro PDT of hypoxic cells, MTT cell viability. In kind it is cell-based. Particulars: PDT treatment alone (RB 1 μM + 532 nm LED 30 sec). The protocol:
Having determined the ability of the CaO2 NPs to improve the light induced ROS generation of Rose Bengal in a simulated hypoxic environment, the next step was to determine if this improved ROS generation would also result in increased Rose Bengal mediated PDT killing of human BxPC-3 pancreatic cancer cells.
BxPc3 cells were seeded in a 96 well plate at a density of 5×10^4 cells per well. The cells were cultured in an anaerobic cabinet (O2/CO2/N2, 0.1:5:94.9 v/v/v) for 3 hours to generate a hypoxic environment and then spiked with RB (1 μM) and incubated for a further 3 hours under anaerobic conditions. This concentration of RB is much lower than normally used in PDT cell-based studies (˜5 μM) and was chosen to enable a moderate PDT effect in the absence of CaO2 NPs so that any beneficial effect provided by the NPs could be determined (Chan et al., Tissue engineering, 13(1): 73-85, 2007). The cells were then incubated with an ethanol: PBS (50:50) solution of the NPs (50 μM) for 5 min before being exposed to light from a 532 nm emitting LED for 30 sec. The NP solution was then removed, the cells washed with fresh PBS and incubated in fresh media under normoxic conditions for a further 21 hours before cell viability was determined using a MTT assay. […]

Data set [2] concerns Mia-PaCa 2 xenograft tumours. Kind of data set: PDT efficacy in vivo, tumour volume. Details: species or system SCID mice. The settings on record: PDT alone (intratumoural Rose Bengal 100 μL, 0.1 mg/mL + white light 3 min); 5 days after treatment. The protocol: All animals employed in this study were treated humanely and in accordance with licenced procedures under the UK Animals (Scientific Procedures) Act 1986. Mia-PaCa 2 xenograft tumours were established as described above. Once the tumours had reached an average volume of 254±17 mm^3 the mice were randomly separated into 4 groups (n=5). Group 1 involved untreated animals, group 2 the PDT only group, Group 3 the 1-CaO2 NPs only group and group 4 the PDT+1-CaO2 NPs group. For group 2, mice received an intratumoural injection (100 μL) of Rose Bengal (0.1 mg/mL) in a PBS solvent and the tumour was then exposed to a LED emitting white light for 3 min (0.05 J/cm^2). Group 3 received a tail vein injection (100 μL) of 1-CaO2 NPs in a PBS vehicle (2 mg/mL) while group 4 also received a tail vein injection (100 μL) of 1-CaO2 NPs in a PBS vehicle (2 mg/mL) in addition to an intratumoural injection (100 μL) of Rose Bengal (0.1 mg/mL) and light exposure as described for group 2. The tumour volume was measured daily over the course of 6 days using callipers.

With `O=C([O-])c1c(Cl)c(Cl)c(Cl)c(Cl)c1-c1c2cc(I)c(=O)c(I)c-2oc2c(I)c([O-])c(I)cc12.[Na+].[Na+]` [Rose Bengal], the reduction in viability in data set [1] turned out to be 10.8%. Moreover, the “difference in tumour volume relative to untreated control animals” value in data set [2] is on record as “no significant difference”.

Values taken from patent publication US11235000B2, “Calcium peroxides nanoparticles as adjuvant therapy” (UNIVERSITY OF ULSTER, priority 2017, dated 2022).
